Reference: ChEMBL document CHEMBL1201862, “PubChem BioAssay data set” (2004)
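How tested: cells in 96-well plates exposed to compound for 48 hours at five concentrations. Abbreviation: GI50, concentration required for 50% inhibition of growth.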 Active and inactive are the calls of the source. Rule as the data show it: active = GI50 up to about 1.1 µM and inactive = higher.

How the values were obtained:
Experiment in all cases: inhibition of tumour cell growth, NCI panel, 48 h
[1] = tested on: SR
[2] = tested on: HL-60
[3] = tested on: MDA-MB-435
[4] = tested on: A549
[5] = tested on: PC-3
[6] = tested on: HCT-15
[7] = tested on: NCI/ADR-RES
[8] = tested on: MOLT-4
[9] = tested on: KM12
[10] = tested on: CCRF-CEM
[11] = tested on: SF-268
[12] = tested on: MDA-N
[13] = tested on: MCF7
[14] = tested on: T47D
[15] = tested on: TK-10
[16] = tested on: OVCAR-8
[17] = tested on: NCI-H522
[18] = tested on: BT-549
[19] = tested on: COLO 205
[20] = tested on: NCI-H226
[21] = tested on: HOP-92
[22] = tested on: SK-MEL-5
[23] = tested on: UACC-257
[24] = tested on: SK-OV-3
[25] = tested on: SNB-75
[26] = tested on: SW-620
[27] = tested on: OVCAR-4
[28] = tested on: SN12C
[29] = tested on: DU-145
[30] = tested on: HCT-116
[31] = tested on: Hs-578T
[32] = tested on: HT-29
[33] = tested on: MDA-MB-231
[34] = tested on: M14
[35] = tested on: U-251
[36] = tested on: LOX IMVI
[37] = tested on: HCC 2998
[38] = tested on: CAKI-1
[39] = tested on: SK-MEL-2
[40] = tested on: OVCAR-3
[41] = tested on: IGROV-1
[42] = tested on: RPMI-8226
[43] = tested on: NCI-H23
[44] = tested on: SF-539
[45] = tested on: UO-31
[46] = tested on: UACC-62
[47] = tested on: Malme-3M
[48] = tested on: SK-MEL-28
[49] = tested on: HOP-62
[50] = tested on: SNB-19
[51] = tested on: 786-0
[52] = tested on: SF-295
[53] = tested on: OVCAR-5
[54] = tested on: ACHN
[55] = tested on: NCI-H460
[56] = tested on: A498
[57] = tested on: RXF 393
[58] = tested on: EKVX
[59] = tested on: K562

CC1(C)S[C@@H]2[C@H](NC(=O)/C=C/c3ccccc3)C(=O)N2[C@H]1C(=O)O
GI50 [1]: > 100 µM (inactive)
GI50 [2]: > 100 µM (inactive)
GI50 [3]: > 100 µM (inactive)
GI50 [4]: > 100 µM (inactive)
GI50 [5]: > 100 µM (inactive)
GI50 [6]: > 100 µM
GI50 [7]: > 100 µM (inactive)
GI50 [8]: > 100 µM (inactive)
GI50 [9]: > 100 µM (inactive)
GI50 [10]: > 100 µM (inactive)
GI50 [11]: > 100 µM (inactive)
GI50 [12]: > 100 µM (inactive)
GI50 [13]: > 100 µM (inactive)
GI50 [14]: > 100 µM (inactive)
GI50 [15]: > 100 µM (inactive)
GI50 [16]: > 100 µM (inactive)
GI50 [17]: > 100 µM (inactive)
GI50 [18]: > 100 µM (inactive)
GI50 [19]: > 100 µM (inactive)
GI50 [20]: > 100 µM (inactive)
GI50 [21]: > 100 µM (inactive)
GI50 [22]: > 100 µM (inactive)
GI50 [23]: > 100 µM (inactive)
GI50 [24]: > 100 µM (inactive)
GI50 [25]: 47.9 µM (inactive)
GI50 [26]: > 100 µM (inactive)
GI50 [27]: > 100 µM (inactive)
GI50 [28]: > 100 µM (inactive)
GI50 [29]: > 100 µM (inactive)
GI50 [30]: > 100 µM (inactive)
GI50 [31]: > 100 µM (inactive)
GI50 [32]: > 100 µM (inactive)
GI50 [33]: > 100 µM (inactive)
GI50 [34]: > 100 µM (inactive)
GI50 [35]: > 100 µM (inactive)
GI50 [36]: > 100 µM (inactive)
GI50 [37]: > 100 µM (inactive)
GI50 [38]: > 100 µM (inactive)
GI50 [39]: > 100 µM (inactive)
GI50 [40]: > 100 µM (inactive)
GI50 [41]: > 100 µM (inactive)
GI50 [42]: > 100 µM (inactive)
GI50 [43]: > 100 µM (inactive)
GI50 [44]: > 100 µM (inactive)
GI50 [45]: > 100 µM (inactive)
GI50 [46]: > 100 µM (inactive)
GI50 [47]: > 100 µM (inactive)
GI50 [48]: 69.5 µM (inactive)
GI50 [49]: > 100 µM (inactive)
GI50 [50]: > 100 µM (inactive)
GI50 [51]: > 100 µM (inactive)
GI50 [52]: > 100 µM (inactive)
GI50 [53]: > 100 µM (inactive)
GI50 [54]: > 100 µM (inactive)
GI50 [55]: > 100 µM (inactive)

COP(=O)(O)/C=C/C(NC(=O)C(Cl)(Cl)Cl)c1ccccc1 (stereo unspecified)
GI50 [2]: > 100 µM (inactive)
GI50 [3]: > 100 µM (inactive)
GI50 [4]: > 100 µM (inactive)
GI50 [5]: > 100 µM (inactive)
GI50 [6]: > 100 µM
GI50 [7]: > 100 µM (inactive)
GI50 [8]: > 100 µM (inactive)
GI50 [9]: > 100 µM (inactive)
GI50 [11]: > 100 µM (inactive)
GI50 [12]: > 100 µM (inactive)
GI50 [13]: > 100 µM (inactive)
GI50 [14]: > 100 µM (inactive)
GI50 [15]: > 100 µM (inactive)
GI50 [16]: > 100 µM (inactive)
GI50 [17]: > 100 µM (inactive)
GI50 [18]: > 100 µM (inactive)
GI50 [19]: > 100 µM (inactive)
GI50 [20]: > 100 µM (inactive)
GI50 [21]: > 100 µM (inactive)
GI50 [56]: > 100 µM (inactive)
GI50 [22]: > 100 µM (inactive)
GI50 [23]: > 100 µM (inactive)
GI50 [24]: > 100 µM (inactive)
GI50 [25]: > 100 µM (inactive)
GI50 [26]: > 100 µM (inactive)
GI50 [27]: > 100 µM (inactive)
GI50 [28]: > 100 µM (inactive)
GI50 [29]: > 100 µM (inactive)
GI50 [57]: > 100 µM (inactive)
GI50 [30]: > 100 µM (inactive)
GI50 [31]: > 100 µM (inactive)
GI50 [58]: > 100 µM (inactive)
GI50 [59]: > 100 µM (inactive)
GI50 [32]: > 100 µM (inactive)
GI50 [33]: > 100 µM (inactive)
GI50 [34]: > 100 µM (inactive)
GI50 [35]: > 100 µM (inactive)
GI50 [36]: > 100 µM (inactive)
GI50 [37]: > 100 µM (inactive)
GI50 [38]: > 100 µM (inactive)
GI50 [39]: > 100 µM (inactive)
GI50 [40]: > 100 µM (inactive)
GI50 [41]: > 100 µM (inactive)
GI50 [42]: > 100 µM (inactive)
GI50 [43]: > 100 µM (inactive)
GI50 [45]: > 100 µM (inactive)
GI50 [46]: > 100 µM (inactive)
GI50 [47]: > 100 µM (inactive)
GI50 [48]: > 100 µM (inactive)
GI50 [49]: > 100 µM (inactive)
GI50 [50]: > 100 µM (inactive)
GI50 [51]: > 100 µM (inactive)
GI50 [52]: > 100 µM (inactive)
GI50 [53]: > 100 µM (inactive)
GI50 [54]: > 100 µM (inactive)
GI50 [55]: > 100 µM (inactive)

C/C=C(/CBr)CCC(Br)C(C)(C)Cl.C/C=C(\CBr)CCC(Br)C(C)(C)Cl (stereo unspecified)
GI50 [3]: > 10 µM (inactive)
GI50 [4]: > 10 µM (inactive)
GI50 [5]: > 10 µM (inactive)
GI50 [6]: > 10 µM
GI50 [7]: > 10 µM (inactive)
GI50 [8]: > 10 µM (inactive)
GI50 [9]: > 10 µM (inactive)
GI50 [10]: > 10 µM (inactive)
GI50 [11]: > 10 µM (inactive)
GI50 [12]: > 10 µM (inactive)
GI50 [13]: > 10 µM (inactive)
GI50 [14]: > 10 µM (inactive)
GI50 [15]: > 10 µM (inactive)
GI50 [16]: > 10 µM (inactive)
GI50 [17]: > 10 µM (inactive)
GI50 [18]: > 10 µM (inactive)
GI50 [19]: > 10 µM (inactive)
GI50 [20]: > 10 µM (inactive)
GI50 [21]: > 10 µM (inactive)
GI50 [56]: > 10 µM (inactive)
GI50 [22]: > 10 µM (inactive)
GI50 [23]: > 10 µM (inactive)
GI50 [24]: > 10 µM (inactive)
GI50 [25]: > 10 µM (inactive)
GI50 [26]: > 10 µM (inactive)
GI50 [27]: > 10 µM (inactive)
GI50 [28]: > 10 µM (inactive)
GI50 [29]: > 10 µM (inactive)
GI50 [57]: > 10 µM (inactive)
GI50 [30]: > 10 µM (inactive)
GI50 [31]: > 10 µM (inactive)
GI50 [58]: > 10 µM (inactive)
GI50 [59]: > 10 µM (inactive)
GI50 [32]: > 10 µM (inactive)
GI50 [33]: > 10 µM (inactive)
GI50 [34]: > 10 µM (inactive)
GI50 [35]: > 10 µM (inactive)
GI50 [37]: > 10 µM (inactive)
GI50 [38]: > 10 µM (inactive)
GI50 [39]: > 10 µM (inactive)
GI50 [40]: > 10 µM (inactive)
GI50 [41]: > 10 µM (inactive)
GI50 [42]: > 10 µM (inactive)
GI50 [43]: > 10 µM (inactive)
GI50 [44]: > 10 µM (inactive)
GI50 [45]: > 10 µM (inactive)
GI50 [47]: > 10 µM (inactive)
GI50 [48]: > 10 µM (inactive)
GI50 [49]: > 10 µM (inactive)
GI50 [50]: > 10 µM (inactive)
GI50 [51]: > 10 µM (inactive)
GI50 [52]: > 10 µM (inactive)
GI50 [53]: > 10 µM (inactive)
GI50 [54]: > 10 µM (inactive)
GI50 [55]: > 10 µM (inactive)
